Values quoted from earlier work, collected in US20250367137A1, “Phloroglucinol Formulations And Methods Of Use” (priority 2022, published 2025).

Test system: irritable bowel syndrome (IBS) sufferers
Settings: placebo-controlled trials

SMILES: Oc1cc(O)cc(O)c1 [phloroglucinol]
- improvement in pain and stool frequency: statistically significant improvement
